Reference: patent publication US20230085307A1, “PYRIDAZINONE COMPOUND AND HERBICIDE” (NISSAN CHEMICAL CORPORATION, priority 2019, published 2023)

Key:
oval-leafed pondweed = experiment: Test Example 2: herbicidal activity, application during weed generation under submerged conditions (Table 17, symbol C); format: in vivo, oval-leafed pondweed (Monochoria vaginalis); conditions: AAH 320 g/ha; application during weed generation, submerged conditions
Procedure, shortened: (§1)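 3-wk visual-criteria score after one water-surface dose. Emulsion formulation, water-diluted to set rate; applied at 1–2 leaf stage; alluvial soil, 4 cm standing water; seeds co-sown; greenhouse 25–30° C.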

barnyard grass [1] = experiment: Test Example 3: herbicidal effect by foliage application, Wagner pot (Table 18, symbol H); format: in vivo, barnyard grass (Echinochloa crus-galli); conditions: 320 g/ha
Procedure, shortened: (§2)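 Plants were sown in alluvial soil held under 0.1–0.5 cm standing water and grown 14 days in a greenhouse at 25–30 °C. An emulsifiable formulation, water-diluted to the set dose, was then sprayed onto the foliage, and effects were scored three weeks later using previously defined criteria.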

blackgrass [2] = experiment: Test Example 5: herbicidal effect by foliage application, plastic box (Table 20, symbol J); format: in vivo, blackgrass (Alopecurus myosuroides); conditions: foliage application, 320 g/ha, 3 weeks after application
Procedure, shortened: (§3)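 Sow seeds spot-wise in sterilized diluvial soil; cover with ~1.5 cm soil. Grow 14 days in greenhouse, 25° C. to 30° C. Spray foliage with emulsion diluted to predetermined amount. Rate effect after 3 weeks.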

velvetleaf [3] = experiment: Test Example 4: herbicidal effect by soil treatment (Table 19, symbol M); format: in vivo, velvetleaf (Abutilon theophrasti); conditions: 320 g/ha
Procedure, shortened: (§4)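 Soil-surface application: an emulsion agent diluted with water to the predetermined dose is sprayed uniformly over seeds lying under roughly 1.5 cm of sterilized diluvial soil. Boxes stay in a greenhouse at 25° C. to 30° C. Three weeks later, each species is graded on previously defined criteria.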

velvetleaf [4] = experiment: Test Example 5: herbicidal effect by foliage application, plastic box (Table 20, symbol M); format: in vivo, velvetleaf (Abutilon theophrasti); conditions: foliage application, 320 g/ha, 3 weeks after application
Procedure, shortened: as §3

barnyard grass [5] = experiment: Test Example 5: herbicidal effect by foliage application, plastic box (Table 20, symbol H); format: in vivo, barnyard grass (Echinochloa crus-galli); conditions: foliage application, 320 g/ha, 3 weeks after application
Procedure, shortened: as §3

redroot pigweed = experiment: Test Example 4: herbicidal effect by soil treatment (Table 19, symbol N); format: in vivo, redroot pigweed (Amaranthus retroflexus); conditions: 320 g/ha
Procedure, shortened: as §4

rice flat sedge = experiment: Test Example 3: herbicidal effect by foliage application, Wagner pot (Table 18, symbol E); format: in vivo, rice flat sedge (Cyperus iria); conditions: 320 g/ha
Procedure, shortened: as §2

barnyard grass [6] = experiment: Test Example 4: herbicidal effect by soil treatment (Table 19, symbol H); format: in vivo, barnyard grass (Echinochloa crus-galli); conditions: 320 g/ha
Procedure, shortened: as §4

Italian ryegrass [7] = experiment: Test Example 5: herbicidal effect by foliage application, plastic box (Table 20, symbol K); format: in vivo, Italian ryegrass (Lolium multiflorum); conditions: foliage application, 320 g/ha, 3 weeks after application
Procedure, shortened: as §3

persian speedwell [8] = experiment: Test Example 5: herbicidal effect by foliage application, plastic box (Table 20, symbol R); format: in vivo, Persian speedwell (Veronica persica); conditions: foliage application, 320 g/ha, 3 weeks after application
Procedure, shortened: as §3

wild oat [9] = experiment: Test Example 4: herbicidal effect by soil treatment (Table 19, symbol I); format: in vivo, wild oat (Avena fatua); conditions: 320 g/ha
Procedure, shortened: as §4

late watergrass = experiment: Test Example 2: herbicidal activity, application during weed generation under submerged conditions (Table 17, symbol A); format: in vivo, late watergrass (Echinochloa oryzicola); conditions: AAH 320 g/ha; application during weed generation, submerged conditions
Procedure, shortened: as §1

Italian ryegrass [10] = experiment: Test Example 4: herbicidal effect by soil treatment (Table 19, symbol K); format: in vivo, Italian ryegrass (Lolium multiflorum); conditions: 320 g/ha
Procedure, shortened: as §4

Japanese bulrush = experiment: Test Example 2: herbicidal activity, application during weed generation under submerged conditions (Table 17, symbol B); format: in vivo, Japanese bulrush (Schoenoplectus juncoides); conditions: AAH 320 g/ha; application during weed generation, submerged conditions
Procedure, shortened: as §1

false cleavers = experiment: Test Example 5: herbicidal effect by foliage application, plastic box (Table 20, symbol Q); format: in vivo, false cleavers (Galium spurium); conditions: foliage application, 320 g/ha, 3 weeks after application
Procedure, shortened: as §3

green foxtail [11] = experiment: Test Example 4: herbicidal effect by soil treatment (Table 19, symbol G); format: in vivo, green foxtail (Setaria viridis); conditions: 320 g/ha
Procedure, shortened: as §4

windgrass [12] = experiment: Test Example 5: herbicidal effect by foliage application, plastic box (Table 20, symbol L); format: in vivo, windgrass (Apera spica-venti); conditions: foliage application, 320 g/ha, 3 weeks after application
Procedure, shortened: as §3

windgrass [13] = experiment: Test Example 4: herbicidal effect by soil treatment (Table 19, symbol L); format: in vivo, windgrass (Apera spica-venti); conditions: 320 g/ha
Procedure, shortened: as §4

Chinese sprangletop = experiment: Test Example 3: herbicidal effect by foliage application, Wagner pot (Table 18, symbol D); format: in vivo, chinese sprangletop (Leptochloa chinensis); conditions: 320 g/ha
Procedure, shortened: as §2

southern crabgrass [14] = experiment: Test Example 4: herbicidal effect by soil treatment (Table 19, symbol F); format: in vivo, southern crabgrass (Digitaria ciliaris); conditions: 320 g/ha
Procedure, shortened: as §4

green foxtail [15] = experiment: Test Example 5: herbicidal effect by foliage application, plastic box (Table 20, symbol G); format: in vivo, green foxtail (Setaria viridis); conditions: foliage application, 320 g/ha, 3 weeks after application
Procedure, shortened: as §3

lambsquarters [16] = experiment: Test Example 4: herbicidal effect by soil treatment (Table 19, symbol O); format: in vivo, lambsquarters (Chenopodium album); conditions: 320 g/ha
Procedure, shortened: as §4

southern crabgrass [17] = experiment: Test Example 5: herbicidal effect by foliage application, plastic box (Table 20, symbol F); format: in vivo, southern crabgrass (Digitaria ciliaris); conditions: foliage application, 320 g/ha, 3 weeks after application
Procedure, shortened: as §3

lambsquarters [18] = experiment: Test Example 5: herbicidal effect by foliage application, plastic box (Table 20, symbol O); format: in vivo, lambsquarters (Chenopodium album); conditions: foliage application, 320 g/ha, 3 weeks after application
Procedure, shortened: as §3

chickweed = experiment: Test Example 4: herbicidal effect by soil treatment (Table 19, symbol P); format: in vivo, common chickweed (Stellaria media); conditions: 320 g/ha
Procedure, shortened: as §4

blackgrass [19] = experiment: Test Example 4: herbicidal effect by soil treatment (Table 19, symbol J); format: in vivo, blackgrass (Alopecurus myosuroides); conditions: 320 g/ha
Procedure, shortened: as §4

wild oat [20] = experiment: Test Example 5: herbicidal effect by foliage application, plastic box (Table 20, symbol I); format: in vivo, wild oat (Avena fatua); conditions: foliage application, 320 g/ha, 3 weeks after application
Procedure, shortened: as §3

persian speedwell [21] = experiment: Test Example 4: herbicidal effect by soil treatment (Table 19, symbol R); format: in vivo, Persian speedwell (Veronica persica); conditions: 320 g/ha
Procedure, shortened: as §4

## CCOc1ccccc1-c1sc2ccc(F)cc2c1-c1c(O)c(C)nn(C)c1=O [2-028]
oval-leafed pondweed
  herbicidal effect rating, C: oval-leafed pondweed: 3 (Herbicidal rate of 40% or more and less than 70%)
Barnyard grass [1]
  herbicidal effect on H (barnyard grass), rating 0-5: 4 (Herbicidal rate of 70% or more and less than 90%)
Blackgrass [2]
  effect on blackgrass (J): 4 (Herbicidal rate of 70% or more and less than 90%)
Velvetleaf [3]
  herbicidal effect rating, M: velvetleaf: 3 (Herbicidal rate of 40% or more and less than 70%)
Velvetleaf [4]
  effect on velvetleaf (M): 4 (Herbicidal rate of 70% or more and less than 90%)
Barnyard grass [5]
  effect on barnyard grass (H): 4 (Herbicidal rate of 70% or more and less than 90%)
Redroot pigweed
  herbicidal effect rating, N: redroot pigweed: 5 (Herbicidal rate of 90% or more (almost completely withered))
Rice flat sedge
  herbicidal effect on E (rice flat sedge), rating 0-5: 5 (Herbicidal rate of 90% or more (almost completely withered))
Barnyard grass [6]
  herbicidal effect rating, H: barnyard grass: 3 (Herbicidal rate of 40% or more and less than 70%)
Italian ryegrass [7]
  effect on Italian ryegrass (K): 3 (Herbicidal rate of 40% or more and less than 70%)
Persian speedwell [8]
  effect on persian speedwell (R): 5 (Herbicidal rate of 90% or more (almost completely withered))
Wild oat [9]
  herbicidal effect rating, I: wild oat: 0 (Herbicidal rate of 5% or less (almost no effect))
Late watergrass
  herbicidal effect rating, A: late watergrass: 3 (Herbicidal rate of 40% or more and less than 70%)
Italian ryegrass [10]
  herbicidal effect rating, K: Italian ryegrass: 0 (Herbicidal rate of 5% or less (almost no effect))
Japanese bulrush
  herbicidal effect rating, B: Japanese bulrush: 1 (Herbicidal rate of 5% or more and less than 20%)
False cleavers
  effect on false cleavers (Q): 5 (Herbicidal rate of 90% or more (almost completely withered))
Green foxtail [11]
  herbicidal effect rating, G: green foxtail: 2 (Herbicidal rate of 20% or more and less than 40%)
Windgrass [12]
  effect on windgrass (L): 4 (Herbicidal rate of 70% or more and less than 90%)
Windgrass [13]
  herbicidal effect rating, L: windgrass: 0 (Herbicidal rate of 5% or less (almost no effect))
Chinese sprangletop
  herbicidal effect on D (Chinese sprangletop), rating 0-5: 3 (Herbicidal rate of 40% or more and less than 70%)
Southern crabgrass [14]
  herbicidal effect rating, F: southern crabgrass: 3 (Herbicidal rate of 40% or more and less than 70%)
Green foxtail [15]
  effect on green foxtail (G): 4 (Herbicidal rate of 70% or more and less than 90%)
Lambsquarters [16]
  herbicidal effect rating, O: lambsquarters: 3 (Herbicidal rate of 40% or more and less than 70%)
Southern crabgrass [17]
  effect on southern crabgrass (F): 3 (Herbicidal rate of 40% or more and less than 70%)
Lambsquarters [18]
  effect on lambsquarters (O): 3 (Herbicidal rate of 40% or more and less than 70%)
chickweed
  herbicidal effect rating, P: chickweed: 4 (Herbicidal rate of 70% or more and less than 90%)
Blackgrass [19]
  herbicidal effect rating, J: blackgrass: 0 (Herbicidal rate of 5% or less (almost no effect))
Wild oat [20]
  effect on wild oat (I): 3 (Herbicidal rate of 40% or more and less than 70%)
Persian speedwell [21]
  herbicidal effect rating, R: persian speedwell: 5 (Herbicidal rate of 90% or more (almost completely withered))
